Where “and” joins values, the source holds several entries; their conditions need not be identical. Equal entries are not always repeated. Entries after “also recorded” stand apart in the source; their conditions may differ.
Assays:
[1] = test system: HCT116 (colon cancer cells); test: In vitro anticancer activity, sulforhodamine B assay; format: cell-based; settings: HCT116, 72 h compound exposure, mean of 3 independent experiments
Description: (§1) HCT116 (colon cancer cells) and NCI-H460 (large cell lung carcinoma) cells were supplied by ATCC, while SiHa cells (cervical cancer) were supplied by Dr. David Cowan, Ontario Cancer Institute, Canada. Cells were maintained in αMEM (Life Technologies) with 5% FCS (fetal calf serum from Moregate Biotech) at 37° C. in a humidified incubator with 5% CO2. Cells were seeded at the appropriate density and allowed to settle for 24 hours, before the compounds (in 0.5% DMSO at the highest concentration) were added at 3-fold serial dilutions. After 72 h compound exposure, the cells were fixed with 10% TCA (trichloroacetic acid from Merck Millipore) for 1 h at 4° C., then washed before addition of 50 μl of 0.4% sulforhodamine B solution (Sigma Aldrich) for 30 min at room temperature in the dark. After washing with 1% acetic acid, the aminoxanthene dye was solubilised with 100 μl/well unbuffered Tris base (10 mM; Serva) on an orbital shaker for at least 30 min in the dark. The optical density was measured on a BioTek EL808 microplate reader at an absorbance of 490 and 450 nm (reference wavelength) and was used to determine the percentage of cell-growth inhibition. IC50 values were calculated with SigmaPlot12.5 using a three-parameter logistic sigmoidal dose-response curve between the calculated growth inhibition and the compound concentration.

[2] = test system: SiHa cells (cervical cancer); test: as above; format: cell-based; settings: 72 h compound exposure, mean of 3 independent experiments
Description: as §1

[3] = test system: NCI-H460 (large cell lung carcinoma) cells; test: as above; format: cell-based; settings: NCI-H460, 72 h compound exposure, mean of 3 independent experiments
Description: as §1

[4] = test system: cancer cell lines (HCT116, NCI-H460, SiHa); test: In vitro anticancer activity, statements over all cell lines tested; settings: 72 h compound exposure
Description: as §1

Compound	IC50 [1]	IC50 [2] [µM]	IC50 [3] [µM]	Solubility in water (Solubility in water) [mM]	cytotoxicity to cancer cell lines [4]	IC50 ([1]; Homo sapiens, HCT-116) [µM]	IC50 ([2]; Homo sapiens) [µM]	IC50 ([3]; Homo sapiens) [µM]	solubility (Solubility in water; water) [mM]
O=C(Nc1cc[n+](Cc2ccccc2)cc1)c1ccccn1.[C-]#[O+].[C-]#[O+].[C-]#[O+].[Cl][Ru-]([Cl])[Cl] [Compound 1, [HL][Ru(CO)3Cl3]]	24 µM	26	73	1.45	most active compound in all cancer cell lines tested; also recorded: moderately cytotoxic	–	–	–	–
O=C(N=c1ccn(Cc2ccccc2)cc1)c1ccccn1.[C-]#[O+].[C-]#[O+].[C-]#[O+].[C-]#[O+].[C-]#[O+].[C-]#[O+].[Cl][Ru+].[Cl][Ru-]([Cl])[Cl] [pH-CORM-1, [Ru(CO)3Cl(L)][Ru(CO)3Cl3]]	≤ 119 µM and 119 µM	148	164	1.56	moderately cytotoxic	–	–	–	–
Cl.O=C(Nc1cc[n+](Cc2ccccc2)cc1)c1ccccn1 [[HL]Cl, 1-Benzyl-4-(picolinamido)pyridinium chloride]	–	–	–	–	–	20	30	54	12.3
CC[N+](CC)(CC)CC.[C-]#[O+].[C-]#[O+].[C-]#[O+].[Cl-].[Cl-].[Cl-].[Ru+2] [Compound 2, [Et4N][Ru(CO)3Cl3]]	> 1600 µM	> 1600	> 1600	6.78	non-cytotoxic in the investigated concentration range; also recorded: not active against any of the cancer cell lines	–	–	–	–
